For one assay, the system named is MM96L melanoma cell line. Kind of assay: MM96L assay of chromatographic fractions (cell inhibition, reversion to dendritic appearance). Type of assay: cell-based, human. Conditions: at 1 in 5×10^6 dilution. The procedure: Fractions were dried by vacuum centrifugation, reconstituted in 500 μl PBS, and assayed against MM96L cells and in the metallothionein reporter assay as described above. Fractions 13 to 28 all induced complete reversion of MM96L cells to a dendritic appearance, but cell death was not observed. The effect was much more striking in the reporter assay, in which activity was still observed at a dilution of 1/10,000 (i.e. at a final concentration in the culture of 1/100,000).
Fractions 14 and 15 from the HPLC subfractionation described in Example 7 and FIG. 3 were further purified by repeated chromatography, selecting the dominant symmetrical peak with constant diode array spectra (e.g. fractions 14 and 15; results for fraction 14 are shown in FIGS. 4 and 5). Activity of the purified fractions in causing reversion of MM96L to the dendritic appearance was confirmed by cell assay.
(a) The ether-soluble fraction, prepared as in Example 7, was reconstituted in ethylene glycol dimethyl ether (DME) and chromatographed on 20×20 cm silica gel plates, using chloroform:ethyl acetate (82:18) as the developing solvent (FIG. 7). The plate was viewed on a UV light box and the UV positive bands were identified, excised from the gel, eluted with DME, and tested for inhibitory activity and morphology reversal against MM96L melanoma cell line. […]

The next assay relates to MM96L cells. Kind of assay: Effect of betaines on MM96L cell numbers. The format is cell-based, human. Further details: key to cell numbers rating and morphology: +++ = no effect; − = complete cell death; *d = indicates change to dendritic morphology of the cells. Conditions: 4 days. The method, then:
Betaines of different types were solubilised in sterile MilliQ™ water to a final concentration of 1 mg/ml, and diluted into 0.1 ml tissue culture medium containing 5000 MM96L cells as described previously. Cells were scored after 4 days incubation.

For 20-acetyl-ingenol-3-angelate, in the assay on MM96L melanoma cell line, the “final concentration active in reversion to complete dendritic morphology” value is listed as 1 ng/ml.

On to `CN1CCC[C@H]1C(=O)O` [N-methyl proline, free base, N-methyl proline], for which the “cell numbers rating and morphology” value in the assay on MM96L cells (dilution 1/50 of 1 mg/ml), in the assay on MM96L cells (dilution 1/500 of 1 mg/ml) and in the assay with MM96L cells (dilution 1/5,000 of 1 mg/ml) was “+++” throughout.

For the compound `C[N+](C)(C)CC(=O)[O-]` [glycine betaine], the “cell numbers rating and morphology” value in the assay with MM96L cells (dilution 1/50 of 1 mg/ml), in the assay on MM96L cells (dilution 1/500 of 1 mg/ml) and in the assay with MM96L cells (dilution 1/5,000 of 1 mg/ml) was “+++” throughout.

For the compound `C[N+]1(C)CCC[C@H]1C(=O)[O-]` [stachydrine (proline betaine), free base, stachydrine (proline betaine)], the “cell numbers rating and morphology” value with MM96L cells (dilution 1/50 of 1 mg/ml), in the assay with MM96L cells (dilution 1/500 of 1 mg/ml) and in the assay with MM96L cells (dilution 1/5,000 of 1 mg/ml) was “+++” each time.

Regarding `CN1CC[C@@H](O)[C@@H]1C(=O)O` [t-3-hydroxy N-methyl proline, free base, t-3-hydroxy N-methyl proline], the “cell numbers rating and morphology” value with MM96L cells (dilution 1/50 of 1 mg/ml), with MM96L cells (dilution 1/500 of 1 mg/ml) and in the assay with MM96L cells (dilution 1/5,000 of 1 mg/ml) was “+++” throughout.

Regarding `C[N+]1(C)C[C@H](O)C[C@H]1C(=O)[O-]` [t-4 hydroxy N,N-dimethyl proline], the “final concentration at which cell numbers were depressed or inhibited” value in the assay on MM96L cells turned out to be 20 µg/mL. Besides, the entries for the “cell numbers rating and morphology” value in the assay with MM96L cells (dilution 1/50 of 1 mg/ml), in the assay on MM96L cells (dilution 1/500 of 1 mg/ml) and with MM96L cells (dilution 1/5,000 of 1 mg/ml) were “+pd”, “+++” and “+++”, respectively.

In the case of `CN1C[C@@H](O)C[C@@H]1C(=O)O` [t-4-hydroxy N-methyl proline, free base, t-4-hydroxy N-methyl proline], the “cell numbers rating and morphology” value with MM96L cells (dilution 1/50 of 1 mg/ml), in the assay on MM96L cells (dilution 1/500 of 1 mg/ml) and in the assay on MM96L cells (dilution 1/5,000 of 1 mg/ml) was “+++” in each case.

Take `C[N+](C)(C)CCC(=O)O.[Cl-]` [β-alanine betaine hydrochloride]: in the assay on MM96L cells, the “final concentration at which cell numbers were depressed or inhibited” value worked out at 20 µg/mL. The “cell numbers rating and morphology” value was “++d” in the assay on MM96L cells (dilution 1/50 of 1 mg/ml), “+++” in the assay with MM96L cells (dilution 1/500 of 1 mg/ml) and “+++” in the assay with MM96L cells (dilution 1/5,000 of 1 mg/ml).

For the origin of these results see patent publication US6787161B2, “Anti-cancer compounds” (Peplin Biotech Pty. Ltd., priority 1997, dated 2004).
